25 molecules from US9663473B2 (Actelion Pharmaceuticals Ltd, priority 2013, dated 2017) can be followed below.

As a reminder, the EC50 is the concentration at which the effect is half-maximal.

The target in this experiment is T1, recombinant human ALX receptor (Homo sapiens, UniProt P25090).
T1 construct: expressed in transfected cells; host or cells: HEK293 (HEK293-hALXR-Gα16)
T1 sequence (P25090 1-351): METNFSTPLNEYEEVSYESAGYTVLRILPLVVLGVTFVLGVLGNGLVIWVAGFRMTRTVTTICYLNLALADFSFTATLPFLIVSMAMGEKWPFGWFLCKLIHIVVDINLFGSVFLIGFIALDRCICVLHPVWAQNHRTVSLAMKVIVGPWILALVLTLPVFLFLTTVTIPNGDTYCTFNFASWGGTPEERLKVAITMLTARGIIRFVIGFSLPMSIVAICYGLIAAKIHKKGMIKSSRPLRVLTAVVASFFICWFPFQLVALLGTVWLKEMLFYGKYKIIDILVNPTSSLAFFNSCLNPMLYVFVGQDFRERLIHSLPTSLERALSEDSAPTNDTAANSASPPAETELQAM
Briefly: Intracellular calcium measurements (FLIPR), ALX receptor agonistic activity. The experiment is classed as cell-based. The settings on record: HEK293-hALXR-Gα16 cells, Fluo-4 calcium signal, normalized to WKYMVm 10 nM. An outline of the steps: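 HEK293 cells co-expressing human ALX receptor and Gα16 were loaded with 1 μM Fluo-4 AM for 60 min at 37° C., then exposed to serially diluted compounds on FLIPR Tetra. Peak fluorescence above baseline (ex 488/em 540 nm) was normalized to 10 nM WKYMVm as high control.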

On to `COc1ccc(C[C@@H](NC(=O)NC2CCCCC2C)c2nc3ccccc3[nH]2)cc1` (stereo partly drawn) [Example 23, 1-((R)-1-(1H-Benzo[d]imidazol-2-yl)-2-(4-methoxyphenyl)ethyl)-3-(2-methylcyclohexyl)urea], for which the EC50 amounted to 124 nM.

Regarding `COc1ccc(C[C@@H](NC(=O)NCCC2CCN(C)CC2)c2nc3ccccc3[nH]2)cc1` [Example 160, (R)-1-(1-(1H-Benzo[d]imidazol-2-yl)-2-(4-methoxyphenyl)ethyl)-3-(2-(1-methylpiperidin-4-yl)ethyl)urea], the EC50 amounted to 151 nM. The result for `COc1ccc(C[C@@H](NC(=O)NCc2c(Cl)cccc2Cl)c2nc3ccccc3[nH]2)cc1` [Example 304, (R)-1-(1-(1H-Benzo[d]imidazol-2-yl)-2-(4-methoxyphenyl)ethyl)-3-(2,6-dichlorobenzyl)urea] reads 141 nM. Take `COc1ccc(C[C@@H](NC(=O)NC2CN3CCC2CC3)c2nc3ccc(C#N)cc3[nH]2)cc1` (stereo partly drawn) [Example 154, 1-((R)-1-(6-Cyano-1H-benzo[d]imidazol-2-yl)-2-(4-methoxyphenyl)ethyl)-3-(quinuclidin-3-yl)urea]: the EC50 stood at 6.8 nM.

Take `COc1ccc(C[C@@H](NC(=O)N[C@H]2CCNC[C@@H]2F)c2nc3ccccc3[nH]2)cc1` (relative stereo) [Example 165, 1-((R)-1-(1H-Benzo[d]imidazol-2-yl)-2-(4-methoxyphenyl)ethyl)-3-((3S*,4S*)-3-fluoropiperidin-4-yl)urea]: the EC50 was 27 nM. For the molecule `COc1ccc(C[C@@H](NC(=O)NCc2cccc(C)c2)c2nc3ccccc3[nH]2)cc1` [Example 276, (R)-1-(1-(1H-Benzo[d]imidazol-2-yl)-2-(4-methoxyphenyl)ethyl)-3-(3-methylbenzyl)urea], the EC50 turned out to be 229 nM. The result for `COc1ccc(C[C@@H](NC(=O)NC2(c3ccccc3Cl)CC2)c2nc3ccccc3[nH]2)cc1` [Example 389, (R)-1-(1-(1H-Benzo[d]imidazol-2-yl)-2-(4-methoxyphenyl)ethyl)-3-(1-(2-chlorophenyl)cyclopropyl)urea] reads 1170 nM; that for `COC(=O)N1CCC(NC(=O)N[C@H](Cc2ccc(OC)cc2)c2nc3ccccc3[nH]2)C1` (stereo partly drawn) [Example 158, Methyl 3-(3-((R)-1-(1H-benzo[d]imidazol-2-yl)-2-(4-methoxyphenyl)ethyl)ureido)pyrrolidine-1-carboxylate], 158 nM. The result for `CCC(NC(=O)N[C@H](Cc1ccc(OC)cc1)c1nc2ccccc2[nH]1)c1ccccc1` (stereo partly drawn) [Example 279, 1-((R)-1-(1H-Benzo[d]imidazol-2-yl)-2-(4-methoxyphenyl)ethyl)-3-(1-phenylpropyl)urea] reads 40 nM. The result for `COc1ccc(C[C@@H](NC(=O)N[C@H]2CCCC[C@H]2CO)c2nc3ccccc3[nH]2)cc1` (relative stereo) [Example 34, 1-((R)-1-(1H-Benzo[d]imidazol-2-yl)-2-(4-methoxyphenyl)ethyl)-3-((1 S*,2R*)-2-(hydroxymethyl)cyclohexyl)urea] reads 42 nM; that for `COc1ccc(CC(NC(=O)Nc2ncc(C)s2)c2nc3ccccc3[nH]2)cc1` (stereo not shown) [Example 402, 1-(1-(1H-Benzo[d]imidazol-2-yl)-2-(4-methoxyphenyl)ethyl)-3-(5-methylthiazol-2-yl)urea], 784 nM; that for `COc1ccc(C[C@@H](NC(=O)NC2CCCC(C)C2)c2nc3ccccc3[nH]2)cc1` (stereo partly drawn) [Example 33, 1-((R)-1-(1H-Benzo[d]imidazol-2-yl)-2-(4-methoxyphenyl)ethyl)-3-(3-methylcyclohexyl)urea], 130 nM. Take `COc1ccc(C[C@@H](NC(=O)NCc2ccccc2OC(F)F)c2nc3ccccc3[nH]2)cc1` [Example 198, (R)-1-(1-(1H-Benzo[d]imidazol-2-yl)-2-(4-methoxyphenyl)ethyl)-3-(2-(difluoromethoxy)benzyl)urea]: the EC50 was 299 nM. `COc1ccc(CC(NC(=O)NCc2ccccc2OC)c2nc3ccccc3[nH]2)cc1` (stereo not shown) [Example 44]: the EC50 came out at 466 nM. The result for `COc1ccc(C[C@@H](NC(=O)NCCc2ccc(OC)cn2)c2nc3ccccc3[nH]2)cc1` [Example 296, (R)-1-(1-(1H-Benzo[d]imidazol-2-yl)-2-(4-methoxyphenyl)ethyl)-3-(2-(5-methoxypyridin-2-yl)ethyl)urea] reads 227 nM; that for `COc1ccc(C[C@@H](NC(=O)NCC2CCN(C(=O)OC(C)(C)C)CC2)c2nc3ccccc3[nH]2)cc1` [Example 146, (R)-tert-Butyl 4-((3-(1-(1H-benzo[d]imidazol-2-yl)-2-(4-methoxyphenyl)ethyl)ureido)methyl)piperidine-1-carboxylate], 512 nM; that for `COc1ccc(C[C@@H](NC(=O)NCCC(N)=O)c2nc3ccccc3[nH]2)cc1` [Example 110, (R)-3-(3-(1-(1H-Benzo[d]imidazol-2-yl)-2-(4-methoxyphenyl)ethyl)ureido)propanamide], 746 nM. The result for `COc1ccc(C[C@@H](NC(=O)NCCc2ccncc2)c2nc3ccccc3[nH]2)cc1` [Example 295, (R)-1-(1-(1H-Benzo[d]imidazol-2-yl)-2-(4-methoxyphenyl)ethyl)-3-(2-(pyridin-4-yl)ethyl)urea] reads 645 nM. The result for `COc1ccc(C[C@@H](NC(=O)NCc2ccn(-c3ccccc3)n2)c2nc3ccccc3[nH]2)cc1` [Example 284, (R)-1-(1-(1H-Benzo[d]imidazol-2-yl)-2-(4-methoxyphenyl)ethyl)-3-((1-phenyl-1H-pyrazol-3-yl)methyl)urea] reads 353 nM; that for `COc1ccc(C[C@@H](NC(=O)NC2Cc3ccccc3C2)c2nc3ccccc3[nH]2)cc1` [Example 26, (R)-1-(1-(1H-Benzo[d]imidazol-2-yl)-2-(4-methoxyphenyl)ethyl)-3-(2,3-dihydro-1H-inden-2-yl)urea], 109 nM; that for `COc1ccc(C[C@@H](NC(=O)NCC2CCCC2)c2nc3ccccc3[nH]2)cc1` [Example 92, (R)-1-(1-(1H-Benzo[d]imidazol-2-yl)-2-(4-methoxyphenyl)ethyl)-3-(cyclopentylmethyl)urea], 48 nM. As to `COc1ccc(C[C@@H](NC(=O)NCCc2ccc(C(F)(F)F)cc2)c2nc3ccccc3[nH]2)cc1` [Example 269, (R)-1-(1-(1H-Benzo[d]imidazol-2-yl)-2-(4-methoxyphenyl)ethyl)-3-(4-(trifluoromethyl)phenethyl)urea], the EC50 is 471 nM. The result for `O=C(NC(Cc1ccc(C(F)(F)F)cc1F)c1nc2ccccc2[nH]1)N[C@H]1CC[C@H](O)CC1` (single isomer, unassigned; ent-2) [Example 359, 1-(1-(1H-Benzo[d]imidazol-2-yl)-2-(2-fluoro-4-(trifluoromethyl)phenyl)ethyl)-3-(trans-4-hydroxycyclohexyl)urea (ent-2)] reads 19 nM; that for `COc1ccc(CC(NC(=O)N[C@H]2CC[C@H](O)CC2)c2nc3ccccc3[nH]2)c(F)c1` (single isomer, unassigned; ent-2) [Example 310, 1-(1-(1H-Benzo[d]imidazol-2-yl)-2-(2-fluoro-4-methoxyphenyl)ethyl)-3-(trans-4-hydroxycyclohexyl)urea (ent-2)], 3.3 nM; that for `COc1ccc(C[C@@H](NC(=O)NC2CCc3cccc(OC)c3C2)c2nc3ccccc3[nH]2)cc1` (stereo partly drawn) [Example 30, 1-((R)-1-(1H-Benzo[d]imidazol-2-yl)-2-(4-methoxyphenyl)ethyl)-3-(8-methoxy-1,2,3,4-tetrahydronaphthalen-2-yl)urea], 26 nM.
